Tests used:
S. flexneri Sf9380 = test: Mouse Sereny test (keratoconjunctivitis); type: in vivo, BALB/c mice; details: for degree of keratoconjunctival inflammation: Sf9380 pre-treated at the concentration (I 1 12.5, I 2 25, I 3 and I 4 100 µmol/L); as to degree of keratoconjunctival inflammation: key: −: no disease; ±: little keratoconjunctivitis; +: mild keratoconjunctivitis; ++: keratoconjunctivitis with some purulence; +++: fully developed keratoconjunctivitis with great purulence
Excerpt: A Mouse Sereny test was used to investigate the inhibitory effect of the four potential PhoQ inhibitors on the virulence of S. flexneri Sf9380. The mice were infected with 1×10^8 CFUs per eye.
A Mouse Sereny test was used to evaluate the virulence of S. flexneri Sf9380 [48]. A single red colony of Sf9380 on Congo Red agar (Tryptic soy broth provided by Oxfoid Co. with 1.5% agar and 0.01% Congo red), was inoculated into LB and grown with or without potential PhoQ inhibitors (final concentration 100,50,25,12.5 or 6.25 µmol/L) at 37°C for 8 hours with constant shaking. The female BALB/c mice (about 18 g) were infected with 1×10^8 CFUs per eye. The eye of the mouse was inoculated with the bacterium with or without potential PhoQ inhibitor treatment (n = 6 mice in each group). […] In the experiment, mouse eyes inoculated with untreated Sf9380 (treated without DMSO) served as the positive control for keratoconjunctivitis, and mouse eyes inoculated with E. coli ATCC 25922 (treated without DMSO) served as the negative control. Because DMSO is the solvent of the potential PhoQ inhibitor, Sf9380 was treated with the same amount of DMSO (0.1%) as the other groups. The invasiveness of the bacteria was scored: no disease or mild irritation as “−”, + as mild conjunctivitis or late development and/or rapid clearing of symptoms, ++ as keratoconjunctivitis without purulence, and +++ as fully developed keratoconjunctivitis with purulence.

SF-PhoQc = biological target: T1, SF-PhoQc (Shigella flexneri, UniProt Q83RR1); test: Pyrophosphate Reagent coupled enzymatic activity assay of SF-PhoQc; type: biochemical, S. flexneri 2a 301
T1 construct: The amplified DNA segment encodes PhoQ HK amino acids 251–486; made in house; host or cells: E. coli JM109
T1 sequence (Q83RR1 251-486): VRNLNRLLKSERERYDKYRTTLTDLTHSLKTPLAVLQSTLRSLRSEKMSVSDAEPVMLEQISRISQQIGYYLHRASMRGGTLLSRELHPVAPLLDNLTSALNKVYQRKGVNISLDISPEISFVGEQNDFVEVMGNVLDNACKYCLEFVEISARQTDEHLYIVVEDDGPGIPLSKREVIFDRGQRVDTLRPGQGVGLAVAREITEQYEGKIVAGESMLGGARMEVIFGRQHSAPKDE
Protocol: The enzymatic activity of SF-PhoQc was determined using the Pyrophosphate Reagent, in which ATP initiates the reaction and ADP generated by ATP is accompanied by the reduction of NADH to NAD^+. The rate of NADH reduction to NAD^+ is detected by a change in absorbance readings at 340 nm. The activity of SF-PhoQc is measured by detecting a decrease in NADH at A340. Recombinant SF-PhoQc (25 µmol/L) was added to initiate the reaction, and the A340 value was recorded by SoftMax vision 4.8 each minute for 30 minutes. The A340 value reduced from 1.47 to 0.65 in the presence of SF-PhoQc (Figure 2).
Figure 2 The activity of recombinant SF-PhoQc. The activity of SF-PhoQc from the Pyrophosphate Reagent was shown. All assays were conducted in a 96-well microplate spectrophotometer. The assay mixture (total volume was 200 µl) contained 25 mmol/L KCl, 2.5 mmol/L MgCl2, 2 mmol/L ATP, 1 mmol/L phosphoendpyruvate, 0.35 mmol/L NADH, 1.5 U/ml PK, 1.25 U/ml LDH and 50 mmol/L Tris-Cl (pH 8.0). Protein SF-PhoQc was added to a final concentration of 25 µmol/L to start the reaction. After SF-PhoQc was added, the A340 value was recorded by SoftMax vision 4.8 every minute for 30 minutes.
The enzymatic activity of SF-PhoQc was measured using both a Pyrophosphate Reagent (Sigma-Aldrich, MO, USA) and a Luminescent Kinase Assay (Promega, WI, USA). The Pyrophosphate Reagent was performed to confirm the inhibitory activities of the effective potential PhoQ inhibitors in the bioinformatics approach. All reactions were carried out in solid black, flat-bottomed 96-well plates. The Pyrophosphate Reagent was performed at 28°C by monitoring the decrease of NADH by a decrease in absorbance readings at 340 nm (ε340 = 6180 M^−1·cm^−1) in the presence of ATP. The final reaction mixture for the Pyrophosphate Reagent contained 25 µmol/L purified SF-PhoQc, 25 mmol/L KCl, 2.5 mmol/L MgCl2, 2 mmol/L ATP, 1 mmol/L phosphoendpyruvate, 0.35 mmol/L NADH, 1.5 U/ml PK, 1.25 U/ml LDH and 50 mmol/L Tris-Cl (pH 8.0). The enzyme activity was determined in the presence of various concentrations of potential PhoQ inhibitors […] to investigate dose-dependent inhibition effects. The A340 value was recorded by SoftMax vision 4.8 every minute, for 30 minutes. The rate of SF-PhoQc enzymatic activity inhibition by a compound was calculated by the following formula: [drawing 1]
Rp (Ratio of Phosphorylation) was defined as the ratio of the decrease activity of SF-PhoQc treated with compound vs the activity of SF-PhoQc treated without compounds. Rp was stand for the percentage of decrease activity of SF-PhoQc.
IC50(the concentration of inhibition of 50%)values of potential PhoQ inhibitors were obtained by fitting the data to a sigmoid dose–response equation using Origin 7.0 software (OriginLab, Northampton, USA).

[1] = Sf9380 pre-treated with 12.5 µmol/L, 1×10^8 CFUs per eye

With `O=C(Nc1ccc(C2(c3cccc(NC(=O)c4cccc5ccccc45)c3)c3ccccc3C(=O)c3ccccc32)cc1)c1ccc2ccccc2c1` [Compound 1] the “degree of keratoconjunctival inflammation” value (from here on “degree”) (S. flexneri Sf9380; 24 h, mouse 1) was “+”, the “degree” value (S. flexneri Sf9380; 24 h, mouse 2) was “+” and the “degree” value (S. flexneri Sf9380; 24 h, mouse 3) was “+”. The “degree” value (S. flexneri Sf9380; 24 h, mouse 4) was “−”, the “degree” value (S. flexneri Sf9380; 24 h, mouse 5) was “+” and the “degree” value (S. flexneri Sf9380; 24 h, mouse 6) was “+”. For the same compound, the “degree” value (S. flexneri Sf9380; 48 h, mouse 1) was “−”, the “degree” value (S. flexneri Sf9380; 48 h, mouse 2) was “−” and the “degree” value (S. flexneri Sf9380; 48 h, mouse 3) was “+”. For the same compound, the “degree” value (S. flexneri Sf9380; 48 h, mouse 4) was “−”, the “degree” value (S. flexneri Sf9380; 48 h, mouse 5) was “−” and the “degree” value (S. flexneri Sf9380; 48 h, mouse 6) was “−”. The “degree” value (S. flexneri Sf9380; 72 h, mouse 1) was “−”, the “degree” value (S. flexneri Sf9380; 72 h, mouse 2) was “−” and the “degree” value (S. flexneri Sf9380; 72 h, mouse 3) was “−”. For the same compound, the “degree” value (S. flexneri Sf9380; 72 h, mouse 4) was “−”, the “degree” value (S. flexneri Sf9380; 72 h, mouse 5) was “−” and the “degree” value (S. flexneri Sf9380; 72 h, mouse 6) was “−”. The “degree” value (S. flexneri Sf9380; 96 h, mouse 1) was “−”, the “degree” value (S. flexneri Sf9380; 96 h, mouse 2) was “−” and the “degree” value (S. flexneri Sf9380; 96 h, mouse 3) was “−”. The “degree” value (S. flexneri Sf9380; 96 h, mouse 4) was “−”, the “degree” value (S. flexneri Sf9380; 96 h, mouse 5) was “−” and the “degree” value (S. flexneri Sf9380; 96 h, mouse 6) was “−”. For the same compound, the “eye finding at 24 hours after infection” value (S. flexneri Sf9380; [1]) was “slight conjunctival inflammation”, the “time by which keratoconjunctivitis was resolved” value (S. flexneri Sf9380; [1]) was ≤ 48 h and the “keratoconjunctival inflammation (words, abstract)” value (S. flexneri Sf9380; mice inoculated with pre-treated S. flexneri 9380) was “no inflammation”. The IC50 (SF-PhoQc) was 12 ± 3.91 µM and the “decrease of SF-PhoQc catalyzed consumption of ATP” value (SF-PhoQc; Pyrophosphate Reagent) was 100%.
